Laboratory results: patent US20240051952A1, “HMOX1 INDUCERS” (Mitobridge Inc., priority 2019, published 2024)

Legend:
Format in all cases: cell-based
[1] = tested on: VCAM-1; assay: VCAM-1 gene expression in TNFα-stimulated primary human endothelial cells; details: HPAEC
From the text: Example 150. Gene Expression in Primary Human Endothelial Cells
Inflammatory conditions in endothelial cells increase expression of adhesion molecules, such as VCAM-1, ICAM-1 and E-selectin through NF-kB signaling. HMOX1 −/− endothelial cells show increased expression of VCAM-1 in response to TNF stimulation, as compared to HMOX +/+endothelial cells. See Seldon et al., J Immunol Dec. 1, 2007, 179 (11) 7840-7851.
Primary human pulmonary artery endothelial cells (HPAEC) (Lonza #CC-2530) were seeded in 12-well plates (TrueLine #TR5001) at 200 k cells per well and placed at 37° C. in 5% CO2. 18-24 hr post seeding, cells were treated with the compound of Example 17 via media change. 24 hr post treatment with the compound, cells were treated with 10 ng/mL TNFα (Invitrogen #PHC3015 in H2O) alone or with the compound of Example 17. […] 20ng cDNA was mixed with water, iQ™ SYBR® Green Supermix (BioRad #170-8886), and 300 nM primer (IDT #NM_001078) for a total 10ul reaction and loaded into 384-well white qPCR plates and subsequently analyzed using BioRad CFX384. […] To calculate fold change, the ΔCt on a per sample basis was calculated as Ct (Gene of interest)—Ct (Average of reference genes). The ΔΔCt was then calculated as ΔCt (experimental sample)—Average ΔCt (control group). […]

[2] = tested on: Human Heme Oxygenase-1 (HMOX-1); assay: ELISA assay to measure human heme oxygenase-1 (HMOX-1) in HepG2 lysate; details: fold change of human HMOX1 protein levels relative to DMSO control, HepG2
Procedure, shortened: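 HO-1 protein quantified by chemiluminescent sandwich ELISA against a 2-fold standard series starting at 20 ng/ml. Samples were 1:20-diluted HepG2 lysates made in Triton X-100/EDTA buffer with protease inhibitors. Capture antibody coated at 8 μg/ml, detection antibody used at 200 ng/ml, room-temperature (20 °C) steps.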

[3] = tested on: Primary human pulmonary artery endothelial cells (HPAEC); assay: Glutathione (GSH) levels in primary human endothelial cells under hemin stress
Method: Example 149. Glutathione (GSH) Levels in Primary Human Endothelial Cells
Primary human pulmonary artery endothelial cells (HPAEC) (Lonza #CC-2530) cultured in endothelial cell growth medium-2 (EGM2 media, Lonza #CC-3162) were seeded in white 96-well plate (Corning® #3610) at 12.5 k cells per well and placed at 37° C. in 5% CO2. 18-24 hr post seeding, cells were treated with the compound of Example 17 via media change. 24 hr post treatment with the compound, cells were treated using a freshly prepared hemin stock (Sigma-Aldrich #51280 in 0.1N NaOH) alone or with the compound of Example 17. […] Media was aspirated off and GSH-Glo™ Glutathione Assay (Promega #V6911) was run following the manufacturer's protocol. White bottom plate seal (PerkinElmer #6005199) was used during read. Analysis was done using Softmax Pro.

Maximum Fold induction [2]: 11-40
SMILES: Cn1c(Nc2nc3ccccc3o2)nc2cc(C(=O)NCCOCCO)ccc21 [Example 17, 2-(benzo[d]oxazol-2-ylamino)-N-(2-(2-hydroxyethoxy)ethyl)-1-methyl-1H-benzo[d]imidazole-5-carboxamide]
TNF-α mediated endothelial cell activation (VCAM-1 expression) ([1]; 24 hr pre-treatment, 10 ng/mL TNFα 4 hours): reduced this TNF-α mediated endothelial cell activation
toxicity, visual inspection of cells ([1]; after 4 hours of TNFα treatment): no toxicity being noted
GSH levels / protection from hemin mediated oxidative stress ([3]; 24 hr pre-incubation, 30 min hemin stress): protects these cells from hemin mediated oxidative stress
toxicity, visual inspection of cells ([3]; after 30 min of hemin stress): no toxicity being noted
